In patent EP3650451A1, “COMPOUNDS AND THEIR USES AS FLUORESCENT PROBES” (Consejo Superior de Investigaciones Cientificas, priority 2017, dated 2019):

Experiments:
[1] = Stability in water: time evolution in D2O followed by 1H NMR (hydrolysis); format: physicochemical; conditions: 15 mM solution in D2O at 25 °C, read-out: t1/2 (hydrolysis) (converted)
Procedure: One of the critical factors that conditions the viability and applicability of functional dyes 3 and 4 as fluorescent mitochondrial probes is their stability in water, since these compounds contain two potentially labile B-O bonds linking the fluorophore with the carnitine substituent. This stability was determined analyzing the time evolution of 3 and 4 in a 15 mM solution in D2O at 25 °C using ^1H NMR. This technique makes it possible not only to define their stability, but also to identify the possible degradation products (Diagram 2). Both probes are hydrolyzed, generating free carnitine and the corresponding 4,4-dihydroxy-BODIPY derivatives 5 and 6. [drawing 8]
Compound 3 is quickly hydrolyzed (t1/2 = 10 min); however, the greater substitution of the tetramethylated derivative in 4 gives it greater stability (t1/2 = 6 h), which promotes its use as a fluorescent marker in live cells. Contrary to what might be believed, the generation of free carnitine and of the corresponding BODIPY derivatives 5 and 6 at physiological pH is, indeed, an advantage for its application in cell labels. Thus, (R)-carnitine is incorporated into the mitochondrial metabolism, while the boron of the hydrolyzed BODIPY can covalently bond to poly-hydroxilated molecules (for example, saccharides and glycoproteins), generating cyclic boronic esters. […]

[2] = Time evolution of the photophysical properties in water; format: physicochemical; parameters: key to φ: fluorescence quantum yield, fraction (0.65 = 65%); conditions: for kfl / knr / εmax / λab / λfl / τ / φ: water
Procedure: Indeed, the fluorescence yield remains constant for 7 hours. However, due to the oligomerization of hydrolysis product 6 and to the ensuing precipitation of the resulting oligomers, fluorescence efficiency gradually decreases in 24 hours, although it maintains a quantum yield of 65%. […] Indeed, the diffusion of the dye outside of the cell organelle, which occurs in dyes not covalently bonded thereto, is one of the main problems in the development of fluorescent biological markers because it entails a significant reduction in fluorescent efficiency and, thus, in the accuracy and reproducibility of the experiments. The rational design of probe 4 must, therefore, prevent this loss of fluorescence signal and improve the quality and accuracy of the measurements, thereby enhancing its applicability as a biological probe.

half-life at 15000 µM [1]: 6 h
time for which the fluorescence yield remains constant ([2]; in water): 7 h
quantum yield ([2]; in water, in 24 hours): 65%
kfl ([2]; time 00:00 (hours:min)): 1.14 10^8s^-1
knr ([2]; time 00:00 (hours:min)): 0.23 10^8s^-1
εmax ([2]; time 00:00 (hours:min)): 3.8 10^4 M^-1 CM^-1
λab ([2]; time 00:00 (hours:min)): 499 nm
λfl ([2]; time 00:00 (hours:min)): 511 nm
τ ([2]; time 00:00 (hours:min)): 7.30 ns
φ ([2]; time 00:00 (hours:min)): 0.83
kfl ([2]; time 00:10 (hours:min)): 1.14 10^8s^-1
knr ([2]; time 00:10 (hours:min)): 0.24 10^8s^-1
εmax ([2]; time 00:10 (hours:min)): 3.8 10^4 M^-1 CM^-1
λab ([2]; time 00:10 (hours:min)): 498 nm
λfl ([2]; time 00:10 (hours:min)): 511 nm
τ ([2]; time 00:10 (hours:min)): 7.25 ns
φ ([2]; time 00:10 (hours:min)): 0.82
kfl ([2]; time 00:25 (hours:min)): 1.14 10^8s^-1
knr ([2]; time 00:25 (hours:min)): 0.25 10^8s^-1
εmax ([2]; time 00:25 (hours:min)): 3.8 10^4 M^-1 CM^-1
λab ([2]; time 00:25 (hours:min)): 498 nm
λfl ([2]; time 00:25 (hours:min)): 511 nm
τ ([2]; time 00:25 (hours:min)): 7.20 ns
φ ([2]; time 00:25 (hours:min)): 0.82
kfl ([2]; time 00:50 (hours:min)): 1.16 10^8s^-1
knr ([2]; time 00:50 (hours:min)): 0.24 10^8s^-1
εmax ([2]; time 00:50 (hours:min)): 3.8 10^4 M^-1 CM^-1
λab ([2]; time 00:50 (hours:min)): 498 nm
λfl ([2]; time 00:50 (hours:min)): 509 nm
τ ([2]; time 00:50 (hours:min)): 7.15 ns
φ ([2]; time 00:50 (hours:min)): 0.83
kfl ([2]; time 01:20 (hours:min)): 1.17 10^8s^-1
knr ([2]; time 01:20 (hours:min)): 0.25 10^8s^-1
εmax ([2]; time 01:20 (hours:min)): 3.8 10^4 M^-1 CM^-1
λab ([2]; time 01:20 (hours:min)): 498 nm
λfl ([2]; time 01:20 (hours:min)): 509 nm
τ ([2]; time 01:20 (hours:min)): 7.05 ns
φ ([2]; time 01:20 (hours:min)): 0.83
kfl ([2]; time 02:00 (hours:min)): 1.18 10^8s^-1
knr ([2]; time 02:00 (hours:min)): 0.25 10^8s^-1
εmax ([2]; time 02:00 (hours:min)): 3.8 10^4 M^-1 CM^-1
λab ([2]; time 02:00 (hours:min)): 497 nm
λfl ([2]; time 02:00 (hours:min)): 509 nm
τ ([2]; time 02:00 (hours:min)): 7.00 ns
φ ([2]; time 02:00 (hours:min)): 0.83
kfl ([2]; time 03:00 (hours:min)): 1.18 10^8s^-1
knr ([2]; time 03:00 (hours:min)): 0.26 10^8s^-1
εmax ([2]; time 03:00 (hours:min)): 3.8 10^4 M^-1 CM^-1
λab ([2]; time 03:00 (hours:min)): 497 nm
λfl ([2]; time 03:00 (hours:min)): 509 nm
τ ([2]; time 03:00 (hours:min)): 6.95 ns
φ ([2]; time 03:00 (hours:min)): 0.82
kfl ([2]; time 04:00 (hours:min)): 1.19 10^8s^-1
knr ([2]; time 04:00 (hours:min)): 0.26 10^8s^-1
εmax ([2]; time 04:00 (hours:min)): 3.8 10^4 M^-1 CM^-1
λab ([2]; time 04:00 (hours:min)): 497 nm
λfl ([2]; time 04:00 (hours:min)): 509 nm
τ ([2]; time 04:00 (hours:min)): 6.90 ns
φ ([2]; time 04:00 (hours:min)): 0.82
kfl ([2]; time 05:00 (hours:min)): 1.22 10^8s^-1
knr ([2]; time 05:00 (hours:min)): 0.26 10^8s^-1
εmax ([2]; time 05:00 (hours:min)): 3.8 10^4 M^-1 CM^-1
λab ([2]; time 05:00 (hours:min)): 497 nm
λfl ([2]; time 05:00 (hours:min)): 508 nm
τ ([2]; time 05:00 (hours:min)): 6.80 ns
φ ([2]; time 05:00 (hours:min)): 0.82
kfl ([2]; time 06:00 (hours:min)): 1.23 10^8s^-1
knr ([2]; time 06:00 (hours:min)): 0.26 10^8s^-1
εmax ([2]; time 06:00 (hours:min)): 3.8 10^4 M^-1 CM^-1
λab ([2]; time 06:00 (hours:min)): 496 nm
λfl ([2]; time 06:00 (hours:min)): 508 nm
τ ([2]; time 06:00 (hours:min)): 6.70 ns
φ ([2]; time 06:00 (hours:min)): 0.83
kfl ([2]; time 07:00 (hours:min)): 1.24 10^8s^-1
knr ([2]; time 07:00 (hours:min)): 0.26 10^8s^-1
εmax ([2]; time 07:00 (hours:min)): 3.8 10^4 M^-1 CM^-1
λab ([2]; time 07:00 (hours:min)): 496 nm
λfl ([2]; time 07:00 (hours:min)): 508 nm
τ ([2]; time 07:00 (hours:min)): 6.65 ns
φ ([2]; time 07:00 (hours:min)): 0.83
kfl ([2]; time 24:00 (hours:min)): 1.03 10^8s^-1
knr ([2]; time 24:00 (hours:min)): 0.54 10^8s^-1
εmax ([2]; time 24:00 (hours:min)): 3.7 10^4 M^-1 CM^-1
λab ([2]; time 24:00 (hours:min)): 496 nm
λfl ([2]; time 24:00 (hours:min)): 507 nm
τ ([2]; time 24:00 (hours:min)): 6.50 ns
φ ([2]; time 24:00 (hours:min)): 0.65
Structure (SMILES): CC1=CC(C)=[N+]2C1=C(c1c(C)cc(C)cc1C)c1c(C)cc(C)n1[B-]21OC(=O)C[C@H](C[N+](C)(C)C)O1 (stereo partly shown) [Compound 4]
effect of hydrolysis on fluorescence emission ([2]; in water): does not entail a significant reduction in its fluorescence emission
